Measured values reported in US20260108547A1, “LEVERAGING L-FUCOSE-MEDIATED SIGNALING TO INDUCE MONOCYTE-DERIVED DENDRITIC CELL POLARIZATION” (H. LEE MOFFITT CANCER CENTER AND RESEARCH INSTITUTE, INC., priority 2022, published 2026).

Experiments:
SW1 tumors [1] = experiment: Flow cytometric profiling of tumors and lymph nodes, SW1 tumors in C3H/HeN mice fed ± L-fucose and treated ± FTY720 (Table 1); assay type: in vivo, mouse
Protocol: Tumors of SW1 or SM1 melanoma cells from […] or C57BL/6 mice, respectively) were digested using 1× tumor digest buffer (0.5 mg/mL Collagenase I, 0.5 mg/mL Collagenase IV, 0.25 mg/mL Hyalyronidase V, 0.1 mg/mL DNAse I in HBSS (Millipore Sigma (St. Louis, MO)). Tumors were homogenized using the Miltenyi MACs dissociator. Red blood cells were lysed using ACK lysis buffer (Life Technologies, (Grand Island, NY)). Tumor homogenate cells were counted using a standard hemocytometer.
Total TILs were gated first to single cells (based on forward scatter height vs width, followed by side scatter height vs. width). Live cells were gated from the Zombie negative population from the population above. TILs were gated based on splenocyte size from a control spleen. Individual immune subpopulations were sub-gated from the total TIL population using the following staining criteria: CD3^+ for CD3^+ T cells; CD3^+/CD4^+/CD8^− for CD4^+T cells; CD3^+/CD4^−/CD8^+ for CD8^+ T cells, CD11c^+/CD11b^+ for DCs; either NK1.1 (for C57/BL6 mice) or DX5 (for C3H/HeJ) for NK cells; CD11b^+/GR1^+ for MDSC-like cells; and F4/80^+ for macrophages. Single-cell suspensions from tumor and spleen tissue were stained with Live/Dead Zombie NIR (Biolegend, (San Diego, CA)) at 1:1,000 in PBS for 20 min. Cell suspensions were spun down and stained with the following with antibodies at 0.5 μg/ml per antibody: APC anti-mouse CD3, Pacific Blue anti-mouse CD4, BV785 anti-mouse CD8, PerCP anti-mouse CD25, FITC anti-mouse F4/80, PeCy7 anti-mouse CD11c, PE anti-mouse NK1.1 or PE anti-mouse DX5, and PerCP-Cy5.5 anti-mouse CD11b. After staining, the cells were washed and fixed (2% formaldehyde), followed by another wash and flow cytometric analysis. The compensation controls were prepared using 0.5 μg/mL of each antibody with UltraComp eBeads, (ThermoFisher Scientific (Waltham, MA)). All samples were subject to flow cytometric profiling using a LSR Flow Cytometer (BD Biosciences (San Jose, CA)) and analysis as indicated using FlowJo software (BD Biosciences (San Jose, CA)).
(§1) For all mouse models, 1×10^6 melanoma cells were injected subcutaneously in the right hind flanks of each mouse. […] This dosage is within ranges for dietary supplementation with L-fucose and other similar dietary sugars (e.g., D-mannose) in other rodent studies. When the tumors reached −2 cm^3, the animals were sacrificed, and the tumors either processed for flow cytometric profiling or for histological analysis as indicated.
(§2) Control vs. L-fucose±FTY720 models (FIG. 2): SW1 or SM1 mouse melanoma cells were injected into syngeneic C3H/HeN (or NSG) female or C57BL/6 male mice, respectively. Cells were injected as follows: parental SW1 cells for FIG. 1A; parental SM1 cells for FIG. 1E; SW1 cells stably expressing either empty vector (EV) or mouse fucose kinase (mFuk) for FIG. 1L; and parental SW1 cells for FIG. 1M. FTY720 was administered at 20 μg every 2 days starting on Day 12, just prior to the initiation of LF, until endpoint.

SW1 tumors [2] = experiment: Volumetric tumor growth, SW1 melanoma in C3H/HeN mice (incl. immunodepletion, FTY720, anti-PD1); assay type: in vivo, mouse; details: SW1 melanoma C3H mouse model treated with FTY720 (inhibition of lymph node egress)
Text: All animals were housed at the Vincent A. Stabile Research building animal facility at H. Lee Moffitt Cancer Center & Research Institute, which is fully accredited by the Association for Assessment and Accreditation of Laboratory Animal Care International (AAALAC, #434), and are managed in accordance with the Guide for the Care and Use of Laboratory Animals (“The Guide”), the Animal Welfare Regulations Title 9 Code of Federal Regulations Subchapter A, “Animal Welfare”, Parts 1-3 (AWR), the Public Health Service Policy on Humane Care and Use of Laboratory Animals (PHS Policy), and by the USF Institutional Animal Care and Use Committee's Principles and Procedures of Animal Care and Use (IACUC Principles). The experiments and protocols detailed in this study received institutional approval by the Moffitt IACUC (RIS00001625). Four-to-six-week-old female C3H/HeN and male C57BL6 mice were purchased from Charles Rivers Laboratories for the indicated experiments. Four-to-six-week-old male NSG mice from the Lau laboratory breeding colony were used for the indicated experiments. Power calculations were used to determine mouse cohort sizes to detect significant changes in tumor sizes. In general, 10 mice per indicated cohort to accommodate for incidental loss of mice due to issues beyond our control (e.g., incidental tumor ulceration that required exclusion from the study). Mouse tumor volumes were measured using length, width and depth divided by 2. At each experimental endpoint, mice were humanely euthanized using CO2 inhalation in accordance to the American Veterinary Medical Association guidelines.
as §1
Control vs. mFuk±L-fucose models (FIG. 1 & FIG. 8): SW1 or SM1 mouse melanoma cells were injected into syngeneic C3H/HeN (or NSG) female or C57BL/6 male mice, respectively, as follows: parental SW1 cells for FIG. 1A; parental SM1 cells for FIG. 1E; SW1 cells stably expressing either empty vector (EV) or mouse fucose kinase (mFuk) for FIG. 1L; and parental SW1 cells for FIG. 1M.
as §2
Immunodepletion mouse models (FIG. 1 & FIG. 8): Three days prior to tumor engraftment, PBS (control) or ˜300 μg α-CD4 (20 mg/kg, for immunodepletion, GK1.5, Bioxcell (West Lebanon, NH)) or 0-CD8 (20 mg/kg, for immunodepletion, 2.43, Bioxcell (West Lebanon, NH)) was administered by intraperitoneal injection into the indicated cohorts of mice. Injections of immunodepletion antibody or PBS were continued every 3-4 days until endpoint. Syngeneic recipient C3H/HeN female or C57BL/6 male mice were injected with SW1 or SM1 cells, respectively. […]

HLA-DRB1 [3] = experiment: Flow cytometric assessment of cell surface fucosylation and HLA-DRB1 in melanoma cells; assay type: cell-based, human; details: 250 μM, 72 h; flow cytometry
Protocol: Indicated cells were treated for 72 h with DMSO, 250 μM fucosyltransferase inhibitor (FUTi) (Millipore Sigma (St. Louis, MO)), or 250 μM of L-fucose (Biosynth (Oak Terrace, IL)). After 72 h, cells were stained with 0.1 μM PKH26 (Millipore Sigma (St. Louis, MO)) prior to fixation in 4% formaldehyde solution. The cells were stained with anti-HLA-DRB1 and fluorescein AAL, or anti-human or anti-mouse PD-L1 overnight. The following day the cells were washed 3 times prior to adding AlexaFluor 594 donkey anti-rabbit. Cells were washed 3 times and then subject to flow cytometric analyses using a FACSCalibur (BD Biosciences (San Jose, CA)). Samples were analyzed using FlowJo analysis software (BD Biosciences (San Jose, CA)). Median values of DRB1 and AAL were normalized to PKH26 values and statistical analysis was performed using GraphPad Prism.

HLA-DRB1 [4] = experiment: Immunofluorescent subcellular localization of HLA-DRB1 in WM793 cells; assay type: cell-based, human; details: compared with vehicle (DMSO)
Protocol: General fluorescent immunocytochemical staining protocol: Melanoma cells were grown on German glass coverslips (Electron Microscopy Services (Hatfield, PA)) and fixed in fixation buffer (4% formaldehyde, 2% sucrose in phosphate buffered saline (PBS) for 20 min at room temperature (RT). The coverslip-grown cells were subject to two 5-min standing washes in PBS prior to permeabilization in permeabilization buffer (0.4% Triton-X-100 and 0.4% IgG-free bovine serum albumin (BSA, Jackson ImmunoResearch Laboratories (Westgrove, PA) in PBS) for 20 min at RT. The coverslip-grown cells were next subject to 2 PBS washes and incubated with the indicated primary antibodies.

HLA-DRB1 [5] = experiment: qRT-PCR and immunoblot of HLA-DRB1 mRNA and protein levels in melanoma cells; assay type: cell-based, human; details: 250 μM
Protocol: Cells were lysed on ice in RIPA lysis buffer (25 mM Tris-HCl pH 7.6, 150 mM NaCl, 5 mM EDTA, 1% NP-40 or 1% Triton X-100, 1% sodium deoxycholate, 0.1% SDS in diH2O+protease and phosphatase inhibitors (ThermoFisher Scientific (Waltham, MA)), briefly sonicated, pelleted, and the resulting lysates were normalized by protein concentration using DC assay (BioRad Laboratories, (Hercules, CA)). The indicated samples were subjected to (12%) SDS-PAGE and immunoblot analysis using the indicated antibodies. Immunoblot imaging and analysis was performed using either an Odyssey FC scanner and ImageStudio (LiCor Biosciences, Lincoln, NE) or film.
RNA from cells subjected to the indicated treatments was extracted using Gene Elute Mammalian Total RNA Extraction System (Millipore Sigma (St. Louis, MO)). RNA was reversed transcribed to cDNA using High-Capacity cDNA Reverse Transcription Kit (ThermoFisher Scientific (Waltham, MA)). qRT-PCR analysis was performed using FastStart Universal SYBR Green Master Mix (Rox) (Roche Diagnostics, (Indianapolis, IN)) using a BioRad CFX96 Real-time system (BioRad Laboratories, (Hercules, CA)). The qRT-PCR cycles used were as follows: 95° C. for 10 min, 35 cycles of 95° C. for 15 seconds, 55° C. for 60 seconds,
and 72° C. for 30 seconds. Expression of the indicated genes was normalized to histone H3A expression. […]

fucosylated HLA-DRB1 = experiment: Lectin-mediated proximity ligation assay (L-PLA) of fucosylated HLA-DRB1 in WM793 cells; assay type: cell-based, human; details: melanoma cells
Protocol: Coverslip-grown cells subjected to L-PLA were processed upfront as described in the fluorescent immunocytochemistry protocol detailed above, whereas FFPE tumor tissue sections were processed according to the fluorescent immunohistochemistry protocol detailed above. Both approaches used mouse-anti-HLA-DRB1 (applied at 0.2 μg/mL, ab215835, Abcam, Cambridge, UK), biotinylated AAL lectin (applied at 0.2 μg/mL, Vector Laboratories (Burlingame, CA)), on coverslips overnight in 4° C. The coverslip-grown cells were again washed twice with PBS followed and then incubated with phalloidin Alexafluor 488 (applied at 0.05 μg/mL, ThermoFisher Scientific (Waltham, MA) with goat anti-biotin (applied at 0.1 μg/mL, Vector Laboratories (Burlingame, CA)) for 2h in 4° C. Subsequent steps of the protocol were adapted from the DUOlink In Situ Green PLA kit's manufacturer's protocol (Millipore Sigma (St. Louis, MO)). PLA anti-goat MINUS and PLA anti-mouse PLUS probes were applied at 1:5 for 1 h at 37° C. The coverslips were washed twice with Wash Buffer A prior to ligation with 1:5 ligation buffer and 1:40 ligase in ddH2O for 30 min at 37° C. […] Microscopy images were acquired using a Keyence BZ-X710, and images were process and analyzed using FIJI (NIH).

| Structure (SMILES) | average # of CD4 stem central memory cells (SW1 tumors [1]; Day 28, tumors) | average # of CD8 stem central memory cells (SW1 tumors [1]; Day 28, tumors) | average # of CD8 effector memory cells (SW1 tumors [1]; Day 42, tumors) | average # of CD8 stem central memory cells (SW1 tumors [1]; Day 42, tumors) | intratumoral CD4+T central and effector memory subpopulations (SW1 tumors [1]; SW1 model ± FTY720) | L-fuc-triggered tumor suppression (SW1 tumors [2]) | cell surface HLA-DRB1 (HLA-DRB1 [3]) | cell surface fucosylation (HLA-DRB1 [3]) | subcellular localization of HLA-DRB1 (HLA-DRB1 [4]) | HLA-DRB1 mRNA and protein levels (HLA-DRB1 [5]) | cytoplasmic/membranous localization of endogenous fucosylated HLA-DRB1 (L-PLA) (fucosylated HLA-DRB1) |
| --- | --- | --- | --- | --- | --- | --- | --- | --- | --- | --- | --- |
| CCCCCCCCc1ccc(CCC(N)(CO)CO)cc1 [FTY720, reference compound] | 0.87 per 10^6 cells | 0.00 per 10^6 cells | 220.02 per 10^6 cells | 0.00 per 10^6 cells | abrogated | completely abrogated |  |  |  |  |  |
| CC(=O)OC1O[C@@H](C)[C@@H](OC(C)=O)[C@@H](OC(C)=O)[C@@H]1F (some centres unmarked) [FUTi, 2F-peracteyl-fucose, reference compound] |  |  |  |  |  |  | decreased | decreased | dimmer, more central, endoplasmic reticulum-co-localization of HLA-DRB1 | remained unchanged | lost |
